Consider one molecule from ChEMBL document CHEMBL2176918, “Design and optimization of pyrazinecarboxamide-based inhibitors of diacylglycerol acyltransferase 1 (DGAT1) leading to a clinical candidate dimethylpyrazinecarboxamide phenylcyclohexylacetic acid (AZD7687)” (J Med Chem, 2012).

The structures appear in SMILES notation.

Data set [1] can be described thus: Clearance in Beagle dog at 27.2 uM/kg, po or 1.4 uM/kg, iv. Type of data set: ADME, organism-based, Canis lupus familiaris. The settings on record: in vivo.
A short description of data set [2]: Octanol/water partition coefficient, log D of the compound at pH 7.4. Type of data set: physicochemical.
Data set [3] in a line: Volume of distribution in C57BL/6 mouse at 8.16 uM/kg, po or 5.4 uM/kg, iv. Type of data set: ADME, organism-based. Particulars: in vivo.
A short description of data set [4]: Tmax in human at 1 to 20 mg. Type of data set: ADME, organism-based. The settings on record: in vivo.
The target of data set [5] is T1, Muscarinic acetylcholine receptor M2 (Homo sapiens, UniProt P08172).
T1 sequence (P08172 whole entry): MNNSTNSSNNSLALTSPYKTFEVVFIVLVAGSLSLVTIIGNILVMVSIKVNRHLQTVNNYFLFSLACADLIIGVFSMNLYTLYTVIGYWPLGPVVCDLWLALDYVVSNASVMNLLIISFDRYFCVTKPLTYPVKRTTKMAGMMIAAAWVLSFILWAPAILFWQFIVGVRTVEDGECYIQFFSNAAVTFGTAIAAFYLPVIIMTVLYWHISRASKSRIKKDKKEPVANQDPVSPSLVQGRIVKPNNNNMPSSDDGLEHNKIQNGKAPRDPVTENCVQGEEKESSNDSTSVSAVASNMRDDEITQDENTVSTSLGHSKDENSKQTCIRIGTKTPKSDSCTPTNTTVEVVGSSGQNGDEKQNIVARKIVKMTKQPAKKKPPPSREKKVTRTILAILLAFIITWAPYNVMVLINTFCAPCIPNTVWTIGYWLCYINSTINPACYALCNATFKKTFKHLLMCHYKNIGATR
As to the kind of experiment: Inhibition of muscarinic M2 receptor.

The nature of data set [6]: Intrinsic clearance in dog hepatocytes assessed as parent compound disappearance at 1 uM per 10^6 cells. Type of data set: ADME, cell-based, Canis lupus familiaris, Hepatocyte. Particulars: read-out: CLH.
Data set [7] concerns the target T2, Diacylglycerol O-acyltransferase 1 (Homo sapiens, UniProt O75907).
T2 sequence (O75907 whole entry): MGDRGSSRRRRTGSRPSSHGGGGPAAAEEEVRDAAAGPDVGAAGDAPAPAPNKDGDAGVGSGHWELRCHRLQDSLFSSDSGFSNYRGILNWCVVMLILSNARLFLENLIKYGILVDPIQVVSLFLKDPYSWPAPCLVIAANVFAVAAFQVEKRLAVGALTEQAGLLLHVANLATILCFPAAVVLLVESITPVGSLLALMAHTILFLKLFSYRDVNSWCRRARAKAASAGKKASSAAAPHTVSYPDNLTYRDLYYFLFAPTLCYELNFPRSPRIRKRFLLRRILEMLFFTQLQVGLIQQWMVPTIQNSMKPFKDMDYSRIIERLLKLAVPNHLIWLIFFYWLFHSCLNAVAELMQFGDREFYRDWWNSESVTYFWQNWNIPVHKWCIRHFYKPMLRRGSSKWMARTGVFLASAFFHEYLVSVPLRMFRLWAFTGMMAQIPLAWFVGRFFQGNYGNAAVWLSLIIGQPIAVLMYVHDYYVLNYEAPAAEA
Briefly: Inhibition of DGAT1 in human HuTu80 cells. Type of data set: cell-based.

Regarding `Cc1nc(C)c(-c2ccc(C3CCC(CC(=O)O)CC3)cc2)nc1C(N)=O` (configuration not stated) [AZD-7687], the clearance in data set [1] was 1.2 mL/min/kg. In addition, the logD in data set [2] was determined as 0.9. Further, the Vd in data set [3] was determined as 0.9 L/kg. Besides, the Tmax in data set [4] is at most 1 h. Moreover, the IC50 in data set [5] stood at 80.5 µM; in data set [7] it was 0.01 µM. In addition, the hepatocyte CLint at 1 µM in data set [6] was 5.5 µL/min/1e6 cells.
